According to the supplement of paper PMC10627819:
Values after ≈ are worked out from the molar mass of the structure shown.

Columns and labels:
[1] = system: B. subtilis 168; test: fitness (endpoint OD595 vs no drug) (fraction); higher = more growth
In short: (§1)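 Volumes were 30 µl per well, or 55 µl for S. pneumoniae, in 384-well plates inoculated at OD595 0.01. Media were TSB, LB Lennox or CY at 37 °C, and OD595 was read every 30 min for 14 h with first-reading background subtraction. Fitness is the ratio of optical density at stationary-phase entry to the robust mean of no-drug controls. That ratio is capped at 1.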

[2] = system: S. aureus DSM 20231; test: as above
In short: as §1

[3] = system: S. aureus Newman; test: as above
In short: as §1

[4] = system: S. pneumoniae D39V; test: as above
In short: as §1

[5] = system: B. subtilis 168; test: Bliss interaction score (quartile over a dose matrix) (fitness difference); higher = more antagonism (negative = synergy)
In short: (§2)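 The Bliss score is observed minus expected fitness, where expected fitness is the product of the single-drug fitness values inferred from the combination data. Fitness is the OD595 at the onset of stationary phase over the plate's robust no-drug mean, capped at 1. Scores are summarised by quartiles over technical, biological and donor/recipient replicates.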

[6] = system: S. aureus DSM 20231; test: as above
In short: as §2

[7] = system: S. aureus Newman; test: as above
In short: as §2

[8] = system: S. pneumoniae D39V; test: as above
In short: as §2

[9] = system: S. aureus DSM 20231
[10] = system: S. aureus Newman
[11] = system: S. pneumoniae D39V
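Throughout, for Bliss interaction score (quartile over a dose matrix): first quartile when negative (synergy) and third quartile when positive (antagonism).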

C[C@@H]1O[C@@H]1P(=O)(O)O [Fosfomycin] + CN1C2=CC=CC=C2N=C3C1=CC=CC3=O [Pyocyanin]
fitness
Conditions | partner 0.325 µg/mL | partner 0.65 µg/mL | partner 1.25 µg/mL | partner 1.3 µg/mL | partner 2.5 µg/mL | partner 5 µg/mL
[1], first compound 1.562 µg/mL | – | – | 0.671 | – | 0.632 | 0.536
[1], first compound 3.124 µg/mL | – | – | 0.59 | – | 0.588 | 0.471
[1], first compound 6.248 µg/mL | – | – | 0.465 | – | 0.412 | 0.376
[2], first compound 0.781 µg/mL | – | – | 0.673 | – | 0.707 | 0.541
[2], first compound 1.562 µg/mL | – | – | 0.653 | – | 0.629 | 0.472
[2], first compound 3.124 µg/mL | – | – | 0.508 | – | 0.509 | 0.39
[3], first compound 0.781 µg/mL | – | – | 0.547 | – | 0.548 | 0.424
[3], first compound 1.562 µg/mL | – | – | 0.439 | – | 0.465 | 0.38
[3], first compound 3.124 µg/mL | – | – | 0.0851 | – | 0.142 | 0.24
[4], first compound 1.25 µg/mL | 0.992 | ≥ 1 | – | 0.774 | – | –
[4], first compound 2.5 µg/mL | 0.971 | 0.923 | – | 0.791 | – | –
[4], first compound 5 µg/mL | 0.837 | 0.899 | – | 0.745 | – | –

Conditions | Bliss interaction score
[5] | 0.072
[6] | 0.0453
[7] | 0.105
[8] | 0.0461

C[C@@H]1O[C@@H]1P(=O)(O)O [Fosfomycin] + C[n+]1ccc(-c2cc[n+](C)cc2)cc1 [Paraquat]
fitness
Conditions | partner 1.25 µg/mL | partner 1.5 µg/mL | partner 2.5 µg/mL | partner 3 µg/mL | partner 5 µg/mL | partner 6 µg/mL
[1], first compound 1.562 µg/mL | 0.681 | – | 0.673 | – | 0.567 | –
[1], first compound 3.124 µg/mL | 0.529 | – | 0.598 | – | 0.519 | –
[1], first compound 6.248 µg/mL | 0.381 | – | 0.386 | – | 0.3 | –
[2], first compound 0.781 µg/mL | 0.717 | – | 0.7 | – | 0.702 | –
[2], first compound 1.562 µg/mL | 0.593 | – | 0.551 | – | 0.585 | –
[2], first compound 3.124 µg/mL | 0.481 | – | 0.51 | – | 0.476 | –
[3], first compound 0.781 µg/mL | 0.542 | – | 0.546 | – | 0.574 | –
[3], first compound 1.562 µg/mL | 0.468 | – | 0.47 | – | 0.483 | –
[3], first compound 3.124 µg/mL | 0.0901 | – | 0.116 | – | 0.169 | –
[4], first compound 1.25 µg/mL | – | 0.985 | – | 0.959 | – | 0.985
[4], first compound 2.5 µg/mL | – | 0.974 | – | 0.973 | – | 0.97
[4], first compound 5 µg/mL | – | 0.812 | – | 0.831 | – | 0.791

Conditions | Bliss interaction score
[5] | -0.0619
[6] | -0.101
[7] | -0.12
[8] | -0.0411

CC1(C)S[C@@H]2[C@H](NC(=O)Cc3ccccc3)C(=O)N2[C@H]1C(=O)O [Penicillin G]
Conditions | MIC [µg/mL]
[9] | 0.087 (≈ 0.26 µM)
[10] | 0.087 (≈ 0.26 µM)
[11] | 0.016 (≈ 0.0478 µM)

fitness
Conditions | 0.0018 µg/mL | 0.0035 µg/mL | 0.007 µg/mL | 0.014 µg/mL | 0.0195 µg/mL | 0.039 µg/mL | 0.078 µg/mL
[3] | – | – | – | – | 0.928 | 0.892 | 0.886
[4] | 0.932 | 0.944 | 0.817 | 0.425 | – | – | –
